The source of these data is US20240228542A1, “LYTIC DOMAIN FUSION CONSTRUCTS, CHECKPOINT INHIBITORS, AND METHODS OF MAKING AND USING SAME” (A28 Therapeutics Inc., priority 2020, published 2024).

Several values for one entry are separate records, joined by “and”; a condition that tells them apart may be missing. Equal entries are not always repeated.

Assay [1] deals with MDA-MB-231. Nature of the assay: Cytotoxicity in MDA-MB-231 breast cancer cells. The format is cell-based. Conditions: MDA-MB-231 breast cancer cell line; read-out: IC50 in Human Cancer Cell Lines. Here is the method:
MDA-MB-435S.luc cells were grown in Leibovitz's L 15 medium, 10% fetal bovine serum, 0.01 mg/ml bovine insulin, 100 IU/ml penicillin, 100 microg/ml streptomycin. The cells were cultured in tight closed flasks. The incubations were conducted using 96 well plates at 10,000 cells per well. Cells were typically seeded into 96 well plates and media was replaced after 48 hours of incubation. Each assay was conducted at increasing concentrations of 0, 0.001, 0.01, 0.05, 0.1, 0.5, 1, 2, 5, 10 and 100 micromolar doses of lytic peptide-binding domain conjugate. Each lytic peptide-binding domain conjugate provided in lyophilized form and was freshly dissolved in saline and added to cells. The duration of incubation was typically 24 h, and cell viability assays were conducted using formazan conversion assays (MTT assay). Controls contained saline or 0.1% triton as reference for 0 and 100% cell death, respectively.
To ascertain the IC50 of various fusion constructs on different human cancer cell lines compared to cisplatinum, IC50 of fusion constructs were evaluated as in Table 3.

Assay [2] concerns MDA-MB-435S cells. The experiment in a line: Time course of cytotoxicity in MDA-MB-435S cells (MTT). The format is cell-based, human. The conditions noted are these: for IC50: MDA-MB 435S; for incubation time to maximal efficacy: MDA-MB-435S cells. The source says: (§1) Membranes of non-cancerous cell lines are neutral and are resistant to cytolytic peptides, in contrast to cancer cell lines, which have a high phosphatidic acid content in their outer membrane.
(§2) The melanoma cell line studied was MDA-MB-435S (estrogen receptor alpha negative), breast cancer cell lines MCF-7 and T47D (estrogen receptor alpha positive), ovarian cancer cell lines (OVCAR-3 and SKOV-3), prostate cancer (LNCaP), the non-malignant breast epithelial cell line MCF-10A and the mouse fibroblast cell line NIH:3T3.
(§3) Cells were seeded into 96 well plates at a density of 10,000 cells/well. […] Controls contained USP saline or 0.1% TritonX-100™ as reference for 0 and 100% cell death, respectively. Incubations were terminated by removing the culture media after 2 minutes, 5 minutes, 15 minutes, 30 minutes, 1 hour, 2 hours, 6 hours, 24 and 48 hours. Cell viability was assessed through formazan conversion assay (MTT assay, (CellTiter 96 Aqueous One, Promega # G3582). Formazan conversion was determined using a BioRad Benchmark Plus microplate spectrophotometer dual wavelengths at 490/630 nm at room temperature).
(§4) Data were calculated as fraction of absorption in TritonX-100™ containing wells representing 100% cell death versus 0% cell death in saline containing wells. Cytotoxicity was determined as ICso using GraphPad Prism version 5.01 for Windows, GraphPad Software, San Diego California USA according to the program for sigmoidal dose response with variable slope using constraint values of 0 and 100%. 4 wells of each individual set of two 96 well plates were compared and analyzed. Statistical analysis for significance was determined by a two-tailed Student's T-test.

Assay [3] has as its system OVCAR-3 cells. It counts as cell-based, human. Conditions: for incubation time to maximal efficacy: OVCAR-3 cells.
Source text: as §1, §2, §3, §4

The subject of assay [4] is NIH:3T3. The format is cell-based, mouse. The conditions noted are these: noncancerous cell line 3T3. How it is done:
as §2, §3
Data were calculated as fraction of absorption in TritonX-100™ containing wells representing 100% cell death versus 0% cell death in saline containing wells. Cytotoxicity was determined as ICso using GraphPad Prism version 5.01 for Windows, GraphPad Software, San Diego California USA according to the program for sigmoidal dose response with variable slope using constraint values of 0 and 100%. 4 wells of each individual set of two 96 well plates were compared and analyzed. […]

Assay [5] relates to PC-3 xenograft. The experiment in a line: PC-3 prostate cancer xenograft. Conditions: for tumor growth: PC-3 xenograft, CLIP71 5 mg/kg. It counts as in vivo, Nu/Nu mice. How it is done: In brief, Nu/Nu male mice, outbred strain, age 6 weeks (Charles River) were injected subcutaneously with a PC-3 cells/Matrigel suspension (1×10^6 cells/mouse). Treatment was started on day 15 after tumor cell injection when the tumors were established and continued on days 22 and 29. The doses for the 3 weekly injections were 2, 0.2 and 0.02 mg/kg body weight, given as a bolus single intravenous injection via lateral tail vein.
A group of 12 tumor bearing mice was sacrificed on day 15 and served as baseline group. All mice were necropsied 35 and 36 days after tumor cell injection. Tumor volumes and bodyweights were recorded twice weekly during the study, as well as overall veterinarian examination of mice was conducted.
Primary tumors, liver, kidney, pancreas, heart, lung, and spleen were collected, fixed in formalin and prepared for histological evaluation. Tumor weights were measured at necropsy, part of the tumors were frozen at −80° C. for LH/CG and LHRH receptor assay determination.

Assay [6] relates to IF5. Nature of the assay: Cytotoxicity in IF5 murine ovarian cancer cells (24 h). The format is cell-based. The conditions noted are these: IF5, 24 h; read-out: In vitro activity (IC50). Here is the method: Murine ovarian cancer cell lines (ID8, IG10, IF5, and 2Cl2) were grown in RPMI 1640 media with 10% Fetal Bovine Serum. Cells were typically seeded (3000 cells per well) into 96 well plates and media was replaced after 48 hours of incubation. […] Phor18-LHRH was provided in lyophilized form was dissolved in saline and added to cells. The duration of incubation was 24 h at 37° C. Cell viability was assessed after 24 hours using a luminometric assays (Promega, CellTiter-0Glo 2.0, G9243). Controls contained saline or 0.1% triton as reference for 0 and 100% cell death, respectively.
Data were processed and analyzed using GraphPad Prism version 7.00 for Windows (GraphPad Software, San Diego California). Statistical analysis for significance was determined by a two-tailed Student's T-test. Each study was conducted to achieve an […] of at least 6.
In vitro activities were expressed as IC50 values for each cell line, time point and compound tested that were calculated using the Hill equation (Graph Pad Prizm software).

Assay [7] has as its system CD8+ T cells. Nature of the assay: T cell activation by condition media from EP-100-treated ID8 cells. The format is cell-based, mouse. Conditions: cells treated with condition media (CM) from EP-100-treated cells; controls 12.3±1.1, p=0.04.

As usually defined, the IC50 is the midpoint of a concentration-inhibition curve. Take “KFAKFAKKFAKFAKKFAKQHWSYGLRPG [Phor18-LHRH]”: the half-maximal inhibitory concentration (IC50) in assay [1] is 5.5 ± 1.2 µM; in assay [2] (0.5 hour), 1.2 µM; in assay [2] (1 hour), 0.6 µM; in assay [3] (OVCAR-3 (p47), read-out: IC50 with increasing incubation time), 0.5 µM; in assay [4] it was over 10 µM; in assay [6] it was 1.01 µM. The “incubation time to maximal efficacy” value is 1 h and 0.5 to 1 h in assay [2]; 1 h and 0.5 to 1 h in assay [3]. In addition, in assay [5] (22 days after tumor cell injection, p<0.001), the “lowest concentration with tumor volume reduction compared to saline controls and CLIP71” value worked out at 0.002 mg/kg bodyweight. Also, the “Median Tumor Weight vs Baseline p < 0.05 (doses)” value in assay [5] (PC-3, 1 × 3 wk, 21 d) is recorded as 0.2. In addition, in assay [5], the tumor growth entry was “effective in arresting tumor growth”. Besides, the “proportion of CD8+ T cells” value in assay [7] turned out to be 17.3±1.1.

Take “KFAKFAKKFAKFAKKFAK [Phor18, reference compound]”: the 50% inhibitory concentration (IC50) in assay [2] (24 hours) is 55.1 µM; in assay [2] (48 hours), 3 µM; in assay [4], over 40 µM. The “incubation time to maximal efficacy” value in assay [2] and in assay [3] was 24 h each time. The tumor growth entry in assay [5] is recorded as “tumor growth was observed”.
